Results taken from patent US8835375B2 (Applied Nanosystems B.V., priority 2006, dated 2014).
Read-outs that look alike come from different tables or passages of the source. One block for each compound: values may come before it. Non-standard residues stand in square brackets, D forms with d. No end group written: not given here. Abu = CC[C@H](N)C(=O)O

Key:
[1] = proteolytic resistance in pig pancreas homogenate; format: in vitro ADME; conditions: for metabolised at 3 h, 0.8 μmol angiotensin/mg pancreas homogenate: read-out: Degradation after 3 h (%)
Protocol: (§1) Angiotensin (wildtype or cyclised analogs, chemically produced [Cyc 4-7] Ang(1-7) or biologically produced [Cyc 4-7] Ang(1-8)) was added to homogenates of pig liver (0.2 μmol angiotensin/mg liver homogenate), pig kidney (0.2 μmol angiotensin/mg kidney homogenate), pig pancreas (0.8 μmol angiotensin/mg pancreas homogenate) or plasma (1 μmol angiotensin/ml) and incubated at 37° C., pH 7.4 or pH 5, for different time periods up to 30 hours. The enzymatic reaction was stopped by 100° C. for 5 min. The remaining amount of intact angiotensin was determined by RP-HPLC with C18-column, mobile phase gradient and 214 nm detection.

[2] = proteolytic resistance in plasma; format: in vitro ADME; conditions: pH 7.4, 37° C.; for metabolised at 3 h, 1 μmol/ml: read-out: Degradation after 3 h (%)
Protocol: as §1

[3] = in vivo stability during continuous intravenous infusion in the rat (Maldi TOF of plasma); set-up: species or system Sprague Dawley rat; conditions: i.v. infusion 1 mL/hour of 100 μM of each peptide together, sample taken at 120 min
Protocol: Rats (Sprague Dawley) were infused during 2 hours at a speed of 1 mL/hour with a solution containing simultaneously two compounds: both 100 μM natural Ang(1-7) as well as 100 μM methyllanthionine-containing angiotensin(1-7) with the thioether bridge between positions 4 and 7. Methyllanthionine-containing angiotensin(1-7) was prepared using L. lactis expressing lantibiotic enzymes as described in example 1. Maldi TOF analyses were performed on plasma samples as described in example 3. Undiluted sample (upper spectrum, mass peak of 826.06 Da at the arrow) and 100-fold diluted sample (lower spectrum, mass peak of 826.47 Da at the arrow) both gave a peak of the right mass, i.e. corresponding to intact methyllanthionine-containing angiotensin(1-7) (Theoretical mass M+H^+ equals 825.9758). […] In a control experiment mixing natural angiotensin(1-7) ex vivo with rat plasma, allowed subsequent detection of natural angiotensin(1-7) (not shown). Experimental details are mentioned in the text of example 3.
A male Sprague Dawley rat was kept under O2/Isoflurane (1.5-2%) narcosis throughout the study. A jugular vein catheter was applied and connected to a syringe containing 0.9% physiological salt solution. The syringe was mounted onto an infusion pump and the flow rate set to 1 mL/hour. […]

[4] = proteolytic resistance in pig kidney homogenate; format: in vitro ADME; conditions: for half-life at 0.2 μmol/mg kidney homogenate / metabolised at 3 h, 0.2 μmol angiotensin/mg kidney homogenate / half-life: pig; for half-life at 0.2 μmol/mg kidney homogenate / metabolised at 3 h, 0.2 μmol angiotensin/mg kidney homogenate: pig kidney homogenate; for metabolised at 3 h, 0.2 μmol angiotensin/mg kidney homogenate: read-out: Degradation after 3 h (%)
Protocol: as §1

[5] = molecular target: T1, Angiotensin Converting Enzyme (ACE) from Porcine kidney (Sus scrofa, UniProt F1RRW5); experiment: resistance against angiotensin converting enzyme (ACE); format: in vitro ADME; conditions: 50 μM peptide; for breakdown by ACE: 37° C., pH 8.3
T1 construct: Angiotensin Converting Enzyme (ACE) from Porcine kidney, SIGMA; purchased SIGMA; host or cells: porcine kidney (tissue-derived)
T1 sequence (F1RRW5 34-1309): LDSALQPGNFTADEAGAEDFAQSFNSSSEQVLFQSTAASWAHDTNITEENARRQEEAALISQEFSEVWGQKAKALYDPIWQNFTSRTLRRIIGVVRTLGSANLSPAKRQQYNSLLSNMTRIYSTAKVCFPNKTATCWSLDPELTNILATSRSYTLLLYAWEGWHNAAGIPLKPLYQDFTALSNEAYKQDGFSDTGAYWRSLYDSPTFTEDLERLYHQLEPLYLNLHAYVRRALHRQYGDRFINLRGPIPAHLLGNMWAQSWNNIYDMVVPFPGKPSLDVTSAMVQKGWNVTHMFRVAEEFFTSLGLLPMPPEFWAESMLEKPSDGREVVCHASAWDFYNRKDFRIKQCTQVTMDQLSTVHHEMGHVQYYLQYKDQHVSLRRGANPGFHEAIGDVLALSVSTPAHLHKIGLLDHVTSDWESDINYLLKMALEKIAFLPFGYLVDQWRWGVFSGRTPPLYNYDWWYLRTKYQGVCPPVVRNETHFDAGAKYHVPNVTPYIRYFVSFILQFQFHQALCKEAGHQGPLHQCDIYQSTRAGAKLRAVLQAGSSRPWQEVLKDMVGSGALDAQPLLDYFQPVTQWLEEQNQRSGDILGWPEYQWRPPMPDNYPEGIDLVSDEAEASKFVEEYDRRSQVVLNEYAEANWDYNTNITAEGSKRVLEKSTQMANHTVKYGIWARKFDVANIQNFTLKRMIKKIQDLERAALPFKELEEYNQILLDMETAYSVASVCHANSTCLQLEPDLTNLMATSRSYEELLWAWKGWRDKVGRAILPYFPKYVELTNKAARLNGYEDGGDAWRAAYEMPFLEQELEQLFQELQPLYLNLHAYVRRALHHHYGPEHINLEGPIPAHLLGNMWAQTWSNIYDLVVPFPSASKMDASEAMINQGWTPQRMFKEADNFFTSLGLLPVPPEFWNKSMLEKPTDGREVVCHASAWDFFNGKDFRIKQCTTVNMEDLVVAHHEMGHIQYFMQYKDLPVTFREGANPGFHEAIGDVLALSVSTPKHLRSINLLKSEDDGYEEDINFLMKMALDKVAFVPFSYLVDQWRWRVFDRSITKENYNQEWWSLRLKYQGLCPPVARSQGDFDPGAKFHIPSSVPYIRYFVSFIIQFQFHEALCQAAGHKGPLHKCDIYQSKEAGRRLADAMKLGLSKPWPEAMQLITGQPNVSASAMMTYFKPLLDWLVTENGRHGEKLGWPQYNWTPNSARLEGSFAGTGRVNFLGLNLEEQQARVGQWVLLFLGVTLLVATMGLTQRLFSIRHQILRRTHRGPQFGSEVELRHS
Protocol: Angiotensin Converting Enzyme (ACE) from Porcine kidney, SIGMA, was used at 4 nM final concentration, FIGS. 2A and 2B, or at 8 nM final concentration, FIGS. 2C and 2D. Natural Ang(1-7) was purchased from Bachem. All experiments were performed in duplicate in a waterbath at 37° C., incubations were performed in a buffer containing 100 mM Tris-HCl, 300 mm NaCl, 10 μM Zn, pH 8.3. Thioether-ring-containing angiotensin was obtained by bacterial production using L. lactis containing the nisin modification and transporter enzymes, NisBTC. Natural angiotensin(1-7), lanthionine-containing angiotensin(1-7) and methyllanthionine-containing angiotensin(1-7) were each used at a concentration of 50 μM. Both the lanthionine and the methyllanthionine variant had the thioether bridge between positions 4 and 7. The reaction was stopped by 100° C. for 5 minutes and put on ice. Samples were centrifuged for 10 min at 14000 rpm at 4° C. and quantified by RP-HPLC. Identification of the HPLC peaks was performed using Maldi TOF mass spectrometry. All points are the average of two measurements.

[6] = proteolytic resistance in pig liver homogenate; format: in vitro ADME; conditions: for half-life at 0.2 μmol/mg liver homogenate / metabolised at 3 h, 0.2 μmol angiotensin/mg liver homogenate / half-life: pig; for half-life at 0.2 μmol/mg liver homogenate / metabolised at 3 h, 0.2 μmol angiotensin/mg liver homogenate: pig liver homogenate; for metabolised at 3 h, 0.2 μmol angiotensin/mg liver homogenate: read-out: Degradation after 3 h (%)
Protocol: as §1

[7] = test system: Angiotensin Converting Enzyme (ACE); experiment: Angiotensin Converting Enzyme (ACE) from Porcine kidney, SIGMA, 8 nM in 100 mM Tris-HCl, 300 mm NaCl, 10 μM Zn, pH 8.3; conditions: 37° C.
[8] = test system: Angiotensin Converting Enzyme (ACE); experiment: Angiotensin Converting Enzyme (ACE) from Porcine kidney, SIGMA, 4 nM in 100 mM Tris-HCl, 300 mm NaCl, 10 μM Zn, pH 8.3; conditions: 37° C., up to 26 hour
ACE = experiment: In vivo; conditions: cited from earlier work
[9] = pig, pig pancreas homogenate, pH 5.0, 37° C.
[10] = pig, pig pancreas homogenate, pH 7.4, 37° C.
[11] = pH 7.4, versus linear angiotensin(1-7)
[12] = tissue homogenate, pH 7.4, 37° C.

Half-life (min) ([1]; pH 5.0, 37° C.): ∞
metabolised at 3 h, 0.8 μmol angiotensin/mg pancreas homogenate [1, 9]: 16%
half-life at 0.8 μmol/mg pancreas homogenate [1, 10]: 1.35 h
metabolised at 3 h, 0.8 μmol angiotensin/mg pancreas homogenate [1, 10]: 81%
half-life at 1 μmol/ml [2]: 2.77 h
metabolised at 3 h, 1 μmol/ml [2]: 55%
detection of intact peptide in plasma by Maldi TOF [3]: not detected at all
half-life at 0.2 μmol/mg kidney homogenate ([4]; pH 5.0, 37° C.): 0.467 h
metabolised at 3 h, 0.2 μmol angiotensin/mg kidney homogenate ([4]; pH 5.0, 37° C.): 98%
half-life at 0.2 μmol/mg kidney homogenate ([4]; pH 7.4, 37° C.): 0.0833 h
metabolised at 3 h, 0.2 μmol angiotensin/mg kidney homogenate ([4]; pH 7.4, 37° C.): 100%
formation of Ang(1-5) by incubation with ACE ([5]; 4 nM ACE): resulted in angiotensin(1-5) formation
breakdown by ACE ([5]; 4 nM ACE, 26 hour incubation): completely broken down
formation of Ang(1-5) by incubation with ACE ([5]; 8 nM ACE): emergence of angiotensin(1-5)
breakdown by ACE ([5]; 8 nM ACE): rapidly broken down
half-life at 0.2 μmol/mg liver homogenate ([6]; pH 5.0, 37° C.): 2.55 h
metabolised at 3 h, 0.2 μmol angiotensin/mg liver homogenate ([6]; pH 5.0, 37° C.): 56%
half-life at 0.2 μmol/mg liver homogenate ([6]; pH 7.4, 37° C.): 0.533 h
metabolised at 3 h, 0.2 μmol angiotensin/mg liver homogenate ([6]; pH 7.4, 37° C.): 100%
Compound: CC[C@H](C)[C@H](NC(=O)[C@H](Cc1ccc(O)cc1)NC(=O)[C@@H](NC(=O)[C@H](CCCNC(=N)N)NC(=O)[C@@H](N)CC(=O)O)C(C)C)C(=O)N[C@@H](Cc1c[nH]cn1)C(=O)N1CCC[C@H]1C(=O)O [Ang(1-7), DRVYIHP, reference compound]

metabolised at 3 h, 0.8 μmol angiotensin/mg pancreas homogenate [1, 10]: 70%
metabolised at 3 h, 0.2 μmol angiotensin/mg kidney homogenate ([4]; pH 7.4, 37° C.): 100%
metabolised at 3 h, 0.2 μmol angiotensin/mg liver homogenate ([6]; pH 7.4, 37° C.): 98%
Compound: CC[C@H](C)[C@H](NC(=O)[C@H](Cc1ccc(O)cc1)NC(=O)[C@@H](NC(=O)[C@H](CCCNC(=N)N)NC(=O)[C@@H](N)CC(=O)O)C(C)C)C(=O)N[C@@H](Cc1cnc[nH]1)C(=O)N1CCC[C@H]1C(=O)N[C@@H](Cc1ccccc1)C(=O)O [Ang(1-8), Asp-Arg-Val-Tyr-Ile-His-Pro-Phe, reference compound]

Half-life (min) ([1]; pH 5.0, 37° C.): ∞
increase of half-life by 4,7-cyclisation [1, 11]: more than 18 fold
metabolised at 3 h, 0.8 μmol angiotensin/mg pancreas homogenate [1, 9]: 6%
metabolised at 3 h, 0.8 μmol angiotensin/mg pancreas homogenate [1, 10]: 4%
half-life ([1]; pig, tissue homogenate, pH 7.4, 37° C., cell printed in hours): > 24 h
half-life [2]: 15.4 h
metabolised at 3 h, 1 μmol/ml [2]: 15%
increase of half-life by 4,7-cyclisation [4, 11]: 6 fold
metabolised at 3 h, 0.2 μmol angiotensin/mg kidney homogenate ([4]; pH 5.0, 37° C.): 4%
metabolised at 3 h, 0.2 μmol angiotensin/mg kidney homogenate ([4]; pH 7.4, 37° C.): 91%
half-life ([4]; tissue homogenate, pH 5.0, 37° C., cell printed in hours): > 24 h
half-life [4, 12]: 0.533 h
increase of half-life by ring introduction ([6]; pH 5, versus linear angiotensin(1-7)): 5 fold
increase of half-life by 4,7-cyclisation [6, 11]: 2 fold
metabolised at 3 h, 0.2 μmol angiotensin/mg liver homogenate ([6]; pH 5.0, 37° C.): 8%
metabolised at 3 h, 0.2 μmol angiotensin/mg liver homogenate ([6]; pH 7.4, 37° C.): 82%
half-life ([6]; tissue homogenate, pH 5.0, 37° C.): 11.8 h
half-life [6, 12]: 1.13 h
Compound: CC[C@H](C)[C@@H]1NC(=O)[C@H](NC(=O)[C@@H](NC(=O)[C@H](CCCNC(=N)N)NC(=O)[C@@H](N)CC(=O)O)C(C)C)CSC[C@@H](C(=O)O)NC(=O)[C@H](Cc2c[nH]cn2)NC1=O [[Cyc^4-7]Ang(1-7), Asp-Arg-Val-Ala-Ile-His-Ala]

half-life ([1]; pig, pH 7.4, 37° C.): 8.05 h
metabolised at 3 h, 0.8 μmol angiotensin/mg pancreas homogenate [1, 10]: 21%
half-life ([4]; pH 7.4, 37° C.): 0.117 h
metabolised at 3 h, 0.2 μmol angiotensin/mg kidney homogenate ([4]; pH 7.4, 37° C.): 100%
half-life ([6]; pH 7.4, 37° C.): 1.12 h
metabolised at 3 h, 0.2 μmol angiotensin/mg liver homogenate ([6]; pH 7.4, 37° C.): 100%
Compound: CC[C@H](C)[C@@H]1NC(=O)C(NC(=O)[C@@H](NC(=O)[C@H](CCCNC(=N)N)NC(=O)[C@@H](N)CC(=O)O)C(C)C)C(C)SC[C@@H](C(=O)N[C@@H](Cc2ccccc2)C(=O)O)NC(=O)[C@H](Cc2c[nH]cn2)NC1=O (stereo partly drawn) [[Cyc^4-7]Ang(1-8), Asp-Arg-Val-Abu-Ile-His-Ala-Phe]

not cleaved [7]: no breakdown observed
Compound: DRVAIHA

cleaved bond [8]: I5-H6, major
cleaved bond [7]: I5-H6, major
Compound: DRVYIHP
cleaved bond (ACE): I5-H6

detection of intact peptide in plasma by Maldi TOF [3]: detected
breakdown by ACE ([5]; 4 nM ACE, 26 hour incubation): no degradation
Compound: DRV[Abu]IHA [methyllanthionine-containing Ang(1-7)]
formation of Ang(1-5) by incubation with ACE ([5]; 4 nM ACE): did not lead to the appearance of Ang(1-5)
